The IC50 is the midpoint of a concentration-inhibition curve.

The test addresses human metabotropic Glutamate 4 receptor (mGluR4) (Homo sapiens (Human), UniProt Q14833). As to the kind of experiment: Assay A: in vitro testing of mGluR4 potency (glutamate-induced cAMP lowering, HTRF cAMP). The format is cell-based. The note with it: HEK293 cells overexpressing human mGluR4; 10 uM L-glutamic acid, 1 uM forskolin; compounds of the present invention. As for the experimental part:
A. In Vitro Testing of mGluR4 Potency
The in vitro activity of the compounds according to the invention may be investigated as follows:
The HEK293 cell overexpressing the human metabotropic Glutamate 4 receptor are thawed at 37° C. and immediately diluted with cell culture medium. After centrifugation, the cell pellet is re-suspended in medium and then distributed from a stirred spinner flask into the wells of the assay plate. The plates are incubated for one hour at room temperature before they are incubated for 24 hours at 37° C./5% CO2. After washing the cells in the plate three times with 80 uL HBSS/HEPES buffer (10 uL buffer remained in the wells after washing), 5 uL per well of compounds diluted in HBSS/HEPES buffer containing 0.2% BSA (final concentration: 0.1%) and 1 mM IBMX (final concentration: 0.5 mM) are added to the wells of the assay plate. Thereafter 5 uL per well of L-Glutamic acid (final concentration: 10 uM), forskolin (final concentration: 1 uM) and 1 mM IBMX (final concentration: 0.5 mM) dissolved in HBSS/HEPES buffer containing 0.2% BSA (final concentration: 0.1%) are added to the assay plate (final DMSO concentration: 1%). Several wells of the assay plate are used either for the positive and the negative controls or for the cAMP standard curve. The assay plate is incubated for 30 minutes at room temperature. Then 5 ul per well of Anti-cAMP-Antibody-d2 solution and 5 ul per well of cAMP-Europium Cryptate dilution are added to all wells of the plate and the plate is incubated another 60 minutes light protected at room temperature. The emission at 615 nm and 665 nm (Excitation wavelength: 320 nm) are measured on the EnVision™ reader (Perkin Elmer). The ratio between the emission at 665 nm and 615 is calculated by the reader. The whole assay is performed in the dark or under green light.
The cAMP standard is prepared by diluting the cAMP stock solution with HBSS/Hepes buffer: 5 μl/well of the cAMP dilutions (in HBSS/Hepes buffer containing 1 mM IBMX and 0.2% BSA—final concentration: 0.5 mM IBMX and 0.1% BSA) are added to 10 ul/well HBSS/Hepes buffer plus 5 ul/well 4% DMSO in HBSS/Hepes containing 0.2% BSA (final DMSO concentration: 1%—like in the wells containing compounds) in the wells of the assay plate. The final cAMP concentrations in the assay plate are: 0, 0.17, 0.69, 2.78, 11.1, 44.5, 178, and 712 nM (two wells/cAMP concentration).
Each assay microtiter plate contained also wells with vehicle controls instead of compound as controls for L-Glutamic acid induced signal (negative control; 100% CTL; 10 uM L-Glutamic acid+1 uM forskolin+0.5 mM IBMX+1% DMSO) and wells with vehicle controls without L-Glutamic acid as controls for non-specific changes in signal (positive control; 0% CTL; 0 uM L-Glutamic acid+1 uM forskolin+0.5 mM IBMX+1% DMSO).
The analysis of the data is performed by the calculation the ratio between the emission at 665 nm and the emission at 615 nm (Em665/Em615 ratio). Thereafter the signals of the compounds are normalized using the positive and negative controls by the following formula:
PoC=100×((Signal Sample−Positive Control)/(Negative Control−Positive Control))
(In general: In TR-FRET formats the signal depends on donor and acceptor labels being close together.)

human metabotropic Glutamate 4 receptor (mGluR4), sequence (Q14833 33-912): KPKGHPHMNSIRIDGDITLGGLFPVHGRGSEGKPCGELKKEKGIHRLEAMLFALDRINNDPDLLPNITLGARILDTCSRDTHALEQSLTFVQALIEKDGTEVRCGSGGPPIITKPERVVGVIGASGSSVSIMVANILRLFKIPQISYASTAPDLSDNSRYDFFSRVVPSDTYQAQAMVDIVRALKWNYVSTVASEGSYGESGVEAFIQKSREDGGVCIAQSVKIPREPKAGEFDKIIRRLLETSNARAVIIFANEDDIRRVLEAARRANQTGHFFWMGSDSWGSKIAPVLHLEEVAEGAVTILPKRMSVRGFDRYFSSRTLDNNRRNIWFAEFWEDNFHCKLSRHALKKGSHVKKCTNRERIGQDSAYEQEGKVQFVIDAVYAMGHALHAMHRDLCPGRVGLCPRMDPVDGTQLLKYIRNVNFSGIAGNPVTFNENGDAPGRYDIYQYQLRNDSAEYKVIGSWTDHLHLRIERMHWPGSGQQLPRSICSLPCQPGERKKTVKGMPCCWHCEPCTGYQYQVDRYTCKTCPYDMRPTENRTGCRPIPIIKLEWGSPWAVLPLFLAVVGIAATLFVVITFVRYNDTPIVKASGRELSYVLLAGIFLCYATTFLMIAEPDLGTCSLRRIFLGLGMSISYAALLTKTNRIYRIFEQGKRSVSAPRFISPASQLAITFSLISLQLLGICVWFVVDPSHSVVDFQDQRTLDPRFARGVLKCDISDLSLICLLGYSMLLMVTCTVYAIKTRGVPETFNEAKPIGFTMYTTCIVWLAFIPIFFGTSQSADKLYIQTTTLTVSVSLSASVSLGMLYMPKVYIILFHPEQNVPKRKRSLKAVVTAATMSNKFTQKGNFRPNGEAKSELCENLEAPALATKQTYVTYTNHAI

Take “5-(difluoromethyl)-N-[(1S)-1-(1-ethyl-5-fluoro-1H-1,3-benzodiazol-2-yl)-2-methylpropyl]pyrazine-2-carboxamide [Example 59]”: half-maximal inhibition (IC50) required 4 nM.

Take `COCCn1c(C(NC(=O)c2cnc(C)cn2)C2CCCO2)nc2cc(C(F)(F)F)ccc21` (single isomer, unassigned) [Example 19-1, N-{[1-(2-methoxyethyl)-5-(trifluoromethyl)-1H-1,3-benzodiazol-2-yl](oxolan-2-yl)methyl}-5-methylpyrazine-2-carboxamide]: the IC50 is 13 nM. `COCCn1c([C@@H](NC(=O)c2cnc(C)cn2)[C@H]2CCCO2)nc2cc(C(F)(F)F)ccc21` (single isomer, unassigned) [Example 19] showed an IC50 of 3 nM. `COCCn1c(C(NC(=O)c2cnc(C(F)F)cn2)C2CCOC2)nc2cc(F)ccc21` (single isomer, unassigned) [Example 48-2, 5-(difluoromethyl)-N-{[5-fluoro-1-(2-methoxyethyl)-1H-1,3-benzodiazol-2-yl](oxolan-3-yl)methyl} pyrazine-2-carboxamide] gave an IC50 of 60 nM.

On to `Cc1cnc(C(=O)N[C@H](c2nc3cc(C(F)(F)F)ccc3n2C)[C@H]2CCCO2)cn1` (single isomer, unassigned) [Example 56], for which half-maximal inhibition (IC50) required 13 nM.

The compound `COCCn1c(C(NC(=O)c2cnc(C)cn2)C2CCOC2)nc2cc(OC(F)(F)F)ccc21` (single isomer, unassigned) [Example 62-2, N-{[1-(2-methoxyethyl)-5-(trifluoromethoxy)-1H-1,3-benzodiazol-2-yl](oxolan-3-yl)methyl}-5-methylpyrazine-2-carboxamide] had an IC50 of 28 nM. `CCn1c(C(NC(=O)c2cnc(C)cn2)C2CCOC2)nc2cc(OC(F)(F)F)ccc21` (single isomer, unassigned) [Example 70-2, N-{[1-ethyl-5-(trifluoromethoxy)-1H-1,3-benzodiazol-2-yl](oxolan-3-yl)methyl}-5-methylpyrazine-2-carboxamide] had an IC50 of 20 nM. As to `CCn1c([C@@H](NC(=O)c2cnc(C)cn2)[C@H]2CCOC2)nc2cc(OC(F)(F)F)ccc21` (single isomer, unassigned) [Example 70], half-maximal inhibition (IC50) was put at 12 nM. Under `COCCn1c(C(NC(=O)c2cnc(C)cn2)C2CCCO2)nc2cc(C(F)(F)F)ccc21` (single isomer, unassigned) [Example 71-2, N-{[1-(2-methoxyethyl)-5-(trifluoromethyl)-1H-1,3-benzodiazol-2-yl](oxolan-2-yl)methyl}-5-methylpyrazine-2-carboxamide] stands 3 nM; under `COCCn1c([C@@H](NC(=O)c2cnc(C)cn2)[C@H]2CCCO2)nc2cc(C(F)(F)F)ccc21` (single isomer, unassigned) [Example 71], 13 nM; under `Cc1cnc(C(=O)N[C@H](c2nc3cc(C(F)(F)F)ccc3n2C)[C@H]2CCCO2)cn1` (single isomer, unassigned) [Example 75], 19 nM.

Take `Cc1cnc(C(=O)NC(c2nc3cc(OC(F)(F)F)ccc3n2C)C2CCCOC2)cn1` (single isomer, unassigned) [Example 78-2, 5-methyl-N-{[1-methyl-5-(trifluoromethoxy)-1H-1,3-benzodiazol-2-yl](oxan-3-yl)methyl]pyrazine-2-carboxamide]: the IC50 came out at 25 nM.

Turning to `Cc1cnc(C(=O)NC(c2nc3cc(C(F)(F)F)ccc3n2C)C2CCCOC2)cn1` (single isomer, unassigned) [Example 82-2, 5-methyl-N-{[1-methyl-5-(trifluoromethyl)-1H-1,3-benzodiazol-2-yl](oxan-3-yl)methyl}pyrazine-2-carboxamide], 32 nM corresponded to half-maximal inhibition (IC50). With `COCCn1c(C(NC(=O)c2cnc(C)cn2)C2CCOC2)nc2cc(C(F)(F)F)ccc21` (single isomer, unassigned) [Example 87-1, N-{[1-(2-methoxyethyl)-5-(trifluoromethyl)-1H-1,3-benzodiazol-2-yl](oxolan-3-yl)methyl}-5-methylpyrazine-2-carboxamide], half-maximal inhibition (IC50) was put at 21 nM.

`COCCn1c(C(NC(=O)c2cnc(C)cn2)C2CCOC2)nc2cc(Cl)ccc21` (single isomer, unassigned) [Example 91-1, N-{[5-chloro-1-(2-methoxyethyl)-1H-1,3-benzodiazol-2-yl](oxolan-3-yl)methyl}-5-methylpyrazine-2-carboxamide] displayed an IC50 of 32 nM. As for `CCn1c(C(NC(=O)c2cnc(C)cn2)C2CCOC2)nc2cc(OC(F)(F)F)ccc21` (single isomer, unassigned) [Example 97-1, N-{[1-ethyl-5-(trifluoromethoxy)-1H-1,3-benzodiazol-2-yl](oxolan-3-yl)methyl}-5-methylpyrazine-2-carboxamide], it took 12 nM to reach half-maximal inhibition (IC50). In the case of `COCCn1c(C(NC(=O)c2cnc(C)cn2)C2CCCOC2)nc2cc(C(F)(F)F)ccc21` (single isomer, unassigned) [Example 103-1, N-{[1-(2-methoxyethyl)-5-(trifluoromethyl)-1H-1,3-benzodiazol-2-yl](oxan-3-yl)methyl}-5-methylpyrazine-2-carboxamide], the IC50 turned out to be 22 nM.

`CCn1c(C(NC(=O)c2cnc(C)cn2)C2CCOC2)nc2cc(C(F)(F)F)ccc21` (single isomer, unassigned) [Example 139, N-{[1-ethyl-5-(trifluoromethyl)-1H-1,3-benzodiazol-2-yl](oxolan-3-yl)methyl}-5-methylpyrazine-2-carboxamide] came in with an IC50 of 11 nM.

Compound `Cc1cnc(C(=O)NC(c2nc3cc(C(F)(F)F)ccc3n2CC(F)F)C2CCOC2)cn1` (single isomer, unassigned) [Example 141, N-{[1-(2,2-difluoroethyl)-5-(trifluoromethyl)-1H-1,3-benzodiazol-2-yl](oxolan-3-yl)methyl}-5-methylpyrazine-2-carboxamide] yielded an IC50 of 31 nM. With `CCn1c(C(NC(=O)c2cnc(C)cn2)C2CCOC2)nc2cc(F)ccc21` (single isomer, unassigned) [Example 143, N-[(1-ethyl-5-fluoro-1H-1,3-benzodiazol-2-yl)(oxolan-3-yl)methyl]-5-methylpyrazine-2-carboxamide], the IC50 stood at 66 nM. The same measure for `Cc1cnc(C(=O)NC(c2nc3ccc(C(F)(F)F)cc3n2CC(F)F)C2CCOC2)cn1` (single isomer, unassigned) [Example 146, N-{[1-(2,2-difluoroethyl)-6-(trifluoromethyl)-1H-1,3-benzodiazol-2-yl](oxolan-3-yl)methyl}-5-methylpyrazine-2-carboxamid]: 16 nM; for `CCn1c(C(NC(=O)c2cnc(C)cn2)C2CCOC2)nc2ccc(C(F)(F)F)cc21` (single isomer, unassigned) [Example 147, N-{[1-ethyl-6-(trifluoromethyl)-1H-1,3-benzodiazol-2-yl](oxolan-3-yl)methyl}-5-methylpyrazine-2-carboxamide]: 11 nM; for `CCn1c(C(NC(=O)c2cnc(C)cn2)C2CCOC2)nc2ccc(C(F)(F)F)cc21` (single isomer, unassigned) [Example 148, N-{[1-ethyl-6-(trifluoromethyl)-1H-1,3-benzodiazol-2-yl](oxolan-3-yl)methyl}-5-methylpyrazine-2-carboxamide]: 14 nM.

These data come from US20240182453A1, “NOVEL SUBSTITUTED PYRAZINE-CARBOXAMIDE DERIVATIVES” (Boehringer Ingelheim International GmbH, priority 2022, published 2024).
